From patent US7892769B2, “Processing of EphA4 polypeptide by γ-secretase activity” (Eisai R&D Management Co., Ltd., priority 2007, dated 2011) come the findings set out here.

Test [1] has as its target T1, γ-secretase (Homo sapiens, UniProt P49768).
T1 construct: host or cells: 293/EBNA-1 (HEK293) cells; only the substrate EphA4-HA was transfected
The test can be described thus: Analysis of EphA4 processing in EphA4-HA-transfected 293/EBNA-1 cell strain (Western blotting, anti-HA antibody). It counts as cell-based. As to conditions: 50 nM Compound E, one day; cells expressing rat EphA4 with C-terminal HA tag; vs sample untreated with Compound E; FIG. 1. On the procedure:
Whether or not EphA4 is a substrate for γ-secretase was evaluated using HEK293 cells expressing EphA4 with an HA tag added to its C-terminus, in the presence of a γ-secretase inhibitor. As the γ-secretase inhibitor, (2S)-2-{[(3,5-difluorophenyl)acetyl]amino}-N-[(3S)-1-methyl-2-oxo-5-phenyl-2,3-dihydro-1H-1,4-benzodiazepin-3-yl]propanamide (hereinafter, sometimes referred to as “Compound E”) (Alexis Biochemicals) was used.
293/EBNA-1 cell strain (Invitrogen) was cultured in 10% FEB (Hyclone)/DMEM (Invitrogen) under 5% CO2 at 37° C., followed by transfection thereinto of a gene encoding rat EphA4 with an HA tag added to its C-terminus with Lipofectamine 2000 (Invitrogen). After one day culture under the same conditions, 50 nM Compound E (Alexis Biochemicals) was added to the medium. Cells were cultured for another day under the same conditions. Then, the transfected HEK293 cells were collected with PBS (Sigma) and sonicated with a sonicator (Taitec VP-5S) to disrupt cells. Then, the quantity of protein was determined with Protein Assay Kit (BioRad). […]
First, the substrate for γ-secretase is cut off its extracellular domain by other protease. […] Since reactions proceed very quickly from the first cleavage to the final degradation by proteasome, the substrate is […] when detected by Western blotting.
(A western blot detects proteins with antibodies after separation by electrophoresis.)

Test [2] has as its target T2, γ-secretase (Rattus norvegicus, UniProt P97887).
T2 construct: endogenous in cells; host or cells: primary culture of hippocampal neurons from embryonic day 18 SD rats (Charles River)
Put plainly: Analysis of EphA4 processing in primary culture of rat hippocampal neurons (Western blotting, anti-EphA4 antibody). As to conditions: Compound E final concentration 50 nM, one week; endogenous EphA4; vs sample untreated with Compound E; FIG. 2. The test is classed as cell-based. On the procedure: Whether or not EphA4 is a substrate for γ-secretase was evaluated using a primary culture of rat hippocampal neurons in the presence of a γ-secretase inhibitor. As the γ-secretase inhibitor, (2S)-2-{[(3,5-difluorophenyl)acetyl]amino}-N-[(3S)-1-methyl-2-oxo-5-phenyl-2,3-dihydro-1H-1,4-benzodiazepin-3-yl]propanamide (Compound E) (Alexis Biochemicals) was used.
The hippocampus was isolated from embryonic day 18 SD rats (Charles River) and subjected to culture. Specifically, embryos were removed aseptically from pregnant rats under etherization. The brain was removed from each embryo and dipped in 20% FBS (Hyclone)/HBSS (Sigma). The hippocampus was collected from the thus obtained brain under a stereomicroscope. The collected hippocampus was treated in an enzyme solution containing 0.25% trypsin (Invitrogen) and 0.5 mg/ml DNase (Sigma) at 35° C. for 10 minutes to disperse cells. This enzyme reaction was terminated by adding 20% FBS (Hyclone)/HBSS (Sigma). Then, 2 ml of HBSS (Sigma) was added to the resultant cells. The HBSS-added cell mass was re-dispersed by gentle pipetting. The resultant neuron suspension was diluted with a medium and plated in 10 cm dishes at an initial cell density of 1.5×10^6 cells/dish. […] Then, cells were collected with PBS and subjected to quantitative determination of protein. […]

Regarding `C[C@H](NC(=O)Cc1cc(F)cc(F)c1)C(=O)N[C@H]1N=C(c2ccccc2)c2ccccc2N(C)C1=O` [Compound E, (2S)-2-{[(3,5-difluorophenyl)acetyl]amino}-N-[(3S)-1-methyl-2-oxo-5-phenyl-2,3-dihydro-1H-1,4-benzodiazepin-3-yl]propanamide], the “accumulation of EphA4 C-terminal fragment (CTF) band” value in test [1] and in test [2] was “a band around 50 kDa (CTF) was accumulated specifically” throughout.
